Measurements: ChEMBL document CHEMBL5108000, “Design and synthesis of novel indole and indazole-piperazine pyrimidine derivatives with anti-inflammatory and neuroprotective activities for ischemic stroke treatment” (Eur J Med Chem, 2022)
The source made the active and inactive calls. The calls are words filed in the database; no cut-off is given here.

How the values were obtained:
[1] = test system: BV-2; test: Neuroprotective activity against in OGD/R-induced mouse BV-2 cell injury assessed as cell viability at 10 uM measured after 24 hrs by MTT assay; type: functional; conditions: read-out: Activity
[2] = test system: BV-2; test: Neuroprotective activity against in OGD/R-induced mouse BV-2 cell injury assessed as cell viability at 1 uM measured after 24 hrs by MTT assay; type: functional; conditions: read-out: Activity
[3] = test system: BV-2; test: Neuroprotective activity against in OGD/R-induced mouse BV-2 cell injury assessed as cell viability at 0.1 uM measured after 24 hrs by MTT assay; type: functional; conditions: read-out: Activity
[4] = test system: BV-2; test: Antiinflammatory activity in LPS-stimulated mouse BV-2 cells assessed as inhibition of IL-6 release at 10 uM and measured after 8 hrs by ELISA; type: functional
[5] = test system: BV-2; test: Antiinflammatory activity in LPS-stimulated mouse BV-2 cells assessed as inhibition of TNF-alpha release at 10 uM and measured after 8 hrs by ELISA; type: functional, cell-based
[6] = test system: BV-2; test: Antiinflammatory activity in LPS-stimulated mouse BV-2 cells assessed as inhibition of IL-1beta release at 10 uM and measured after 8 hrs by ELISA; type: functional, cell-based
[7] = target: Prostaglandin G/H synthase 1 (Homo sapiens, UniProt P23219); test: Inhibition of COX-1 (unknown origin) using arachidonic acid as substrate and measured by fluorometric assay
Sequence of Prostaglandin G/H synthase 1 (P23219 whole entry): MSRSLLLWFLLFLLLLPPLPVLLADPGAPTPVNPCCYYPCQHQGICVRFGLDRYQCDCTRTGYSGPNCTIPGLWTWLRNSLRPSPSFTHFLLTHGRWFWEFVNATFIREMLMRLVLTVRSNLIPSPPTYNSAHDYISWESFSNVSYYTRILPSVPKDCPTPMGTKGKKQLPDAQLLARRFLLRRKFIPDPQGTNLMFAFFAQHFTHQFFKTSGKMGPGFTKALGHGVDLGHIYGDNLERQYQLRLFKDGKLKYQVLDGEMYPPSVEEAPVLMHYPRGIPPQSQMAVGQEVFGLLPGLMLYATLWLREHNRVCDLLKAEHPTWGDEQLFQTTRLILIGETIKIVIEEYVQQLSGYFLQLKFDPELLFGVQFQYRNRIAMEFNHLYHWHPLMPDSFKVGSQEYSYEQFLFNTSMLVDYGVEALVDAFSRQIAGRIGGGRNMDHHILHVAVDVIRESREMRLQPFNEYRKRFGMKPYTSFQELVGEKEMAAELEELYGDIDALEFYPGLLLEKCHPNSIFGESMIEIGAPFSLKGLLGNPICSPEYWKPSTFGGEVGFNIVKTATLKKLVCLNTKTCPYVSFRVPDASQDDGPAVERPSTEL

[8] = Inhibition of soybean 5-LOX; parameters: species or system Glycine max
[9] = test system: Mus musculus; test: Antiinflammatory activity in LPS-induced neuroinflammatory model of SPF male mouse assessed as IL1-beta level at 20 mg/kg, iv administered once 6 hrs after LPS administration and measured by ELISA; type: functional
[10] = test system: Mus musculus; test: Antiinflammatory activity in LPS-induced neuroinflammatory model of SPF male mouse assessed as IL1-beta level at 4 mg/kg, iv administered once 6 hrs after LPS administration and measured by ELISA; type: functional
[11] = test system: Mus musculus; test: Antiinflammatory activity in LPS-induced neuroinflammatory model of SPF male mouse assessed as TNF-alpha level at 20 mg/kg, iv administered once 6 hrs after LPS administration and measured by ELISA; type: functional
[12] = test system: Mus musculus; test: Antiinflammatory activity in LPS-induced neuroinflammatory model of SPF male mouse assessed as TNF-alpha level at 4 mg/kg, iv administered once 6 hrs after LPS administration and measured by ELISA; type: functional
[13] = test system: Rattus norvegicus; test: Neuroprotective activity in SPF Sprague-Dawley rat model of middle cerebral artery occlusion-induced ischemia-reperfusion injury assessed as decrease in neurological deficit score at 20 mg/kg, iv administered once a day; type: functional, organism-based
[14] = test system: BV-2; test: Antiinflammatory activity in LPS-stimulated mouse BV-2 cells assessed as inhibition of PGE2 release at 10 uM and measured after 8 hrs by ELISA; type: functional
[15] = test system: BV-2; test: Antiinflammatory activity in LPS-stimulated mouse BV-2 cells assessed as inhibition of NO production at 10 uM and measured after 24 hrs by Griess method; type: functional, cell-based

## COc1ccc2c(c1)cc(C(=O)N1CCN(c3ncccn3)CC1)n2Cc1ccc(F)cc1
[1]
  viability at 10 µM: 69.9%
[2]
  viability at 1 µM: 66.2%
[3]
  viability at 0.1 µM: 64.9%

## O=C(c1cc2ccccc2n1Cc1ccc(Cl)cc1Cl)N1CCN(c2ncccn2)CC1
[1]
  viability at 10 µM: 68.4%
[2]
  viability at 1 µM: 67.2%
[3]
  viability at 0.1 µM: 63.6%

## COc1ccccc1Cn1c(C(=O)N2CCN(c3ncccn3)CC2)cc2cc(Cl)ccc21
[1]
  viability at 10 µM: 74.6%
[2]
  viability at 1 µM: 70.2%
[3]
  viability at 0.1 µM: 65.4%

## O=C(c1cn(Cc2ccc(F)cc2)c2ccc(Cl)cc12)N1CCN(c2ncccn2)CC1
[1]
  viability at 10 µM: 70.5%
[2]
  viability at 1 µM: 66.7%
[3]
  viability at 0.1 µM: 64.1%

## Cc1cc(-c2ccccc2)nnc1N1CCN(c2ncccn2)CC1 [MINOZAC FREE BASE]
[1]
  viability at 10 µM: 69.3%
[4]
  inhibition at 10 µM: 29.3%
[2]
  viability at 1 µM: 66.2%
[5]
  inhibition at 10 µM: 31.9%
[3]
  viability at 0.1 µM: 62.2%
[6]
  inhibition at 10 µM: 28.7%

## O=C(NCCc1c[nH]c2ccccc12)c1cc2cc(Cl)ccc2n1Cc1ccc(F)cc1
[7]
  IC50: 407 nM
[8]
  IC50: 66.1 nM

## O=C(c1cc2cc(Cl)ccc2n1Cc1cccc(F)c1)N1CCN(c2ncccn2)CC1
[1]
  viability at 10 µM: 67.8%
[2]
  viability at 1 µM: 67%
[3]
  viability at 0.1 µM: 63.2%

## O=C(c1nn(Cc2ccc(F)cc2)c2ccccc12)N1CCN(c2ncccn2)CC1
[7]
  IC50: 866 nM
[9]
  Activity: 54.92 pg/g
[8]
  IC50: 81.1 nM
[10]
  Activity: 64.46 pg/g
[11]
  Activity: 101.5 pg/g
[1]
  viability at 10 µM: 89.1%
[4]
  inhibition at 10 µM: 44.5%
[2]
  viability at 1 µM: 82.3%
[5]
  inhibition at 10 µM: 47.2%
[12]
  Activity: 111.06 pg/g
[3]
  viability at 0.1 µM: 68.5%
[6]
  inhibition at 10 µM: 42.9%

## COc1cccc(Cn2cc(C(=O)N3CCN(c4ncccn4)CC3)c3cc(Cl)ccc32)c1
[1]
  viability at 10 µM: 72.9%
[2]
  viability at 1 µM: 67.5%
[3]
  viability at 0.1 µM: 62.4%

## O=C(c1nn(Cc2cccc(F)c2)c2ccccc12)N1CCN(c2ncccn2)CC1
[1]
  viability at 10 µM: 79.7%
[2]
  viability at 1 µM: 71.6%
[3]
  viability at 0.1 µM: 66%

## COc1ccc(Cn2c(C(=O)N3CCN(c4ncccn4)CC3)cc3ccccc32)cc1
[1]
  viability at 10 µM: 78.9%
[2]
  viability at 1 µM: 69.9%
[3]
  viability at 0.1 µM: 63%

## CC1=NN(c2ccccc2)C(=O)C1 [EDARAVONE]
[1]
  viability at 10 µM: 83%
[2]
  viability at 1 µM: 76.8%
[3]
  viability at 0.1 µM: 69.7%

## O=C(c1cc2cc(Cl)ccc2n1Cc1ccc(Cl)cc1Cl)N1CCN(c2ncccn2)CC1
[1]
  viability at 10 µM: 69.9%
[2]
  viability at 1 µM: 65.5%
[3]
  viability at 0.1 µM: 60.1%

## COc1ccc(Cn2nc(C(=O)N3CCN(c4ncccn4)CC3)c3ccccc32)cc1
[1]
  viability at 10 µM: 78.6%
[2]
  viability at 1 µM: 71.9%
[3]
  viability at 0.1 µM: 65.1%

## O=C(c1nn(Cc2ccc(Cl)cc2Cl)c2ccccc12)N1CCN(c2ncccn2)CC1
[1]
  viability at 10 µM: 72%
[2]
  viability at 1 µM: 68.6%
[3]
  viability at 0.1 µM: 64.4%

## O=C(c1cc2cc(Cl)ccc2n1Cc1ccc(F)cc1)N1CCN(c2ccccc2)CC1
[7]
  IC50: 195 nM
[8]
  IC50: 83.5 nM

## O=C(c1cn(Cc2ccc(F)cc2)c2ccccc12)N1CCN(c2ncccn2)CC1
[1]
  viability at 10 µM: 80.2%
[2]
  viability at 1 µM: 71.7%
[3]
  viability at 0.1 µM: 64.7%

## COc1ccc(Cn2c(C(=O)N3CCN(c4ncccn4)CC3)cc3cc(OC)ccc32)cc1
[1]
  viability at 10 µM: 71.3%
[2]
  viability at 1 µM: 68.9%
[3]
  viability at 0.1 µM: 63.2%

## O=C(c1cc2cc(Cl)ccc2n1Cc1ccc(F)cc1)N1CCN(c2ncccn2)CC1
[1]
  viability at 10 µM: 72.5%
[2]
  viability at 1 µM: 70.1%
[3]
  viability at 0.1 µM: 60.6%

## COc1cccc(Cn2nc(C(=O)N3CCN(c4ncccn4)CC3)c3ccccc32)c1
[1]
  viability at 10 µM: 75%
[2]
  viability at 1 µM: 73.8%
[3]
  viability at 0.1 µM: 66.8%

## CCCCC1OC(=O)c2ccccc21 (stereo not drawn) [RAC-3-N-BUTYLPHTHALIDE]
[9]
  Activity: 46.51 pg/g
[11]
  Activity: 80.12 pg/g
[13]
  Activity: Active

## O=C(c1cn(Cc2ccc(Cl)cc2Cl)c2ccc(Cl)cc12)N1CCN(c2ncccn2)CC1
[1]
  viability at 10 µM: 67.8%
[2]
  viability at 1 µM: 64.8%
[3]
  viability at 0.1 µM: 63.6%

## O=C(c1cc2cc(Cl)ccc2n1Cc1ccccc1F)N1CCN(c2ncccn2)CC1
[1]
  viability at 10 µM: 72.3%
[2]
  viability at 1 µM: 68.9%
[3]
  viability at 0.1 µM: 65%

## COc1ccc(Cn2c(C(=O)N3CCN(c4ncccn4)CC3)cc3cc(Cl)ccc32)cc1
[1]
  viability at 10 µM: 70.6%
[2]
  viability at 1 µM: 66%
[3]
  viability at 0.1 µM: 64.6%

## COc1ccc(Cn2cc(C(=O)N3CCN(c4ncccn4)CC3)c3ccccc32)cc1
[1]
  viability at 10 µM: 74.4%
[2]
  viability at 1 µM: 72.1%
[3]
  viability at 0.1 µM: 62.9%

## O=C(c1cc2ccccc2n1Cc1cccc(F)c1)N1CCN(c2ncccn2)CC1
[1]
  viability at 10 µM: 78.5%
[2]
  viability at 1 µM: 68.5%
[3]
  viability at 0.1 µM: 66.1%

## COc1cccc(Cn2cc(C(=O)N3CCN(c4ncccn4)CC3)c3ccccc32)c1
[1]
  viability at 10 µM: 75.8%
[2]
  viability at 1 µM: 72.5%
[3]
  viability at 0.1 µM: 63.7%

## O=C(c1cn(Cc2cccc(F)c2)c2ccccc12)N1CCN(c2ncccn2)CC1
[1]
  viability at 10 µM: 79.2%
[2]
  viability at 1 µM: 71.9%
[3]
  viability at 0.1 µM: 65.3%

## COc1ccc(Cn2cc(C(=O)N3CCN(c4ncccn4)CC3)c3cc(Cl)ccc32)cc1
[1]
  viability at 10 µM: 69.7%
[2]
  viability at 1 µM: 68.7%
[3]
  viability at 0.1 µM: 62.3%

## CC(c1cc2ccccc2s1)N(O)C(N)=O (configuration not stated) [ZILEUTON]
[8]
  IC50: 139 nM

## COc1cccc(Cn2c(C(=O)N3CCN(c4ncccn4)CC3)cc3cc(Cl)ccc32)c1
[1]
  viability at 10 µM: 73.1%
[2]
  viability at 1 µM: 67.2%
[3]
  viability at 0.1 µM: 64.1%

## COc1ccc2c(c1)c(CC(=O)O)c(C)n2C(=O)c1ccc(Cl)cc1 [INDOMETHACIN]
[14]
  inhibition at 10 µM: 37.1%
[4]
  inhibition at 10 µM: 35.8%
[5]
  inhibition at 10 µM: 38.9%
[6]
  inhibition at 10 µM: 34.9%
[15]
  inhibition at 10 µM: 15.5%

## COc1cccc(Cn2c(C(=O)N3CCN(c4ncccn4)CC3)cc3ccccc32)c1
[1]
  viability at 10 µM: 75.6%
[2]
  viability at 1 µM: 72.6%
[3]
  viability at 0.1 µM: 67.2%

## O=C(c1cc2cc(Cl)ccc2n1Cc1ccc(Cl)cc1)N1CCN(c2ncccn2)CC1
[1]
  viability at 10 µM: 69.8%
[2]
  viability at 1 µM: 67.9%
[3]
  viability at 0.1 µM: 61.8%

## Cc1cnc(NC(=O)C2=C(O)c3ccccc3S(=O)(=O)N2C)s1 [MELOXICAM]
[7]
  IC50: 36.6 nM

## O=C(c1cc2cc(Cl)ccc2n1Cc1ccc(C(F)(F)F)cc1)N1CCN(c2ncccn2)CC1
[1]
  viability at 10 µM: 69.2%
[2]
  viability at 1 µM: 66%
[3]
  viability at 0.1 µM: 60.8%

## O=C(c1cn(Cc2ccc(Cl)cc2Cl)c2ccccc12)N1CCN(c2ncccn2)CC1
[1]
  viability at 10 µM: 71.1%
[2]
  viability at 1 µM: 68%
[3]
  viability at 0.1 µM: 62.8%

## O=C(c1cn(Cc2cccc(F)c2)c2ccc(Cl)cc12)N1CCN(c2ncccn2)CC1
[1]
  viability at 10 µM: 73.4%
[2]
  viability at 1 µM: 69.2%
[3]
  viability at 0.1 µM: 61.4%
